Columns and labels:
[1] = Antioxidant activity assessed as inhibition of hypoxanthine/xanthine oxidase-mediated ROS generation incubated for 5 min prior to xanthine oxidase addition measured every 4 secs for 100 secs by luminol-enhanced chemiluminescence analysis; format: functional
[2] = target: Xanthine dehydrogenase/oxidase (Homo sapiens, UniProt P47989); assay: Inhibition of xanthine oxidase (unknown origin) using pterine as substrate assessed as rate of isoxantopterine formation by fluorimetric analysis (reference value: 3.25 +/- 0.25 umol/min)
[3] = Antioxidant activity in Homo sapiens (human) PMNC assessed as inhibition of fMLP-induced ROS generation at 100 uM incubated for 30 min prior to fMLP-induction measured every 4 secs for 100 secs by luminol-enhanced chemiluminescence analysis; format: functional
[4] = (§1) Antioxidant activity in Homo sapiens (human) PMNC assessed as inhibition of fMLP-induced ROS generation incubated for 30 min prior to fMLP-induction measured every 4 secs for 100 secs by luminol-enhanced chemiluminescence analysis; format: functional
Homo sapiens = species on record: Homo sapiens; assay: as §1; format: functional

Xanthine dehydrogenase/oxidase, sequence (P47989 whole entry): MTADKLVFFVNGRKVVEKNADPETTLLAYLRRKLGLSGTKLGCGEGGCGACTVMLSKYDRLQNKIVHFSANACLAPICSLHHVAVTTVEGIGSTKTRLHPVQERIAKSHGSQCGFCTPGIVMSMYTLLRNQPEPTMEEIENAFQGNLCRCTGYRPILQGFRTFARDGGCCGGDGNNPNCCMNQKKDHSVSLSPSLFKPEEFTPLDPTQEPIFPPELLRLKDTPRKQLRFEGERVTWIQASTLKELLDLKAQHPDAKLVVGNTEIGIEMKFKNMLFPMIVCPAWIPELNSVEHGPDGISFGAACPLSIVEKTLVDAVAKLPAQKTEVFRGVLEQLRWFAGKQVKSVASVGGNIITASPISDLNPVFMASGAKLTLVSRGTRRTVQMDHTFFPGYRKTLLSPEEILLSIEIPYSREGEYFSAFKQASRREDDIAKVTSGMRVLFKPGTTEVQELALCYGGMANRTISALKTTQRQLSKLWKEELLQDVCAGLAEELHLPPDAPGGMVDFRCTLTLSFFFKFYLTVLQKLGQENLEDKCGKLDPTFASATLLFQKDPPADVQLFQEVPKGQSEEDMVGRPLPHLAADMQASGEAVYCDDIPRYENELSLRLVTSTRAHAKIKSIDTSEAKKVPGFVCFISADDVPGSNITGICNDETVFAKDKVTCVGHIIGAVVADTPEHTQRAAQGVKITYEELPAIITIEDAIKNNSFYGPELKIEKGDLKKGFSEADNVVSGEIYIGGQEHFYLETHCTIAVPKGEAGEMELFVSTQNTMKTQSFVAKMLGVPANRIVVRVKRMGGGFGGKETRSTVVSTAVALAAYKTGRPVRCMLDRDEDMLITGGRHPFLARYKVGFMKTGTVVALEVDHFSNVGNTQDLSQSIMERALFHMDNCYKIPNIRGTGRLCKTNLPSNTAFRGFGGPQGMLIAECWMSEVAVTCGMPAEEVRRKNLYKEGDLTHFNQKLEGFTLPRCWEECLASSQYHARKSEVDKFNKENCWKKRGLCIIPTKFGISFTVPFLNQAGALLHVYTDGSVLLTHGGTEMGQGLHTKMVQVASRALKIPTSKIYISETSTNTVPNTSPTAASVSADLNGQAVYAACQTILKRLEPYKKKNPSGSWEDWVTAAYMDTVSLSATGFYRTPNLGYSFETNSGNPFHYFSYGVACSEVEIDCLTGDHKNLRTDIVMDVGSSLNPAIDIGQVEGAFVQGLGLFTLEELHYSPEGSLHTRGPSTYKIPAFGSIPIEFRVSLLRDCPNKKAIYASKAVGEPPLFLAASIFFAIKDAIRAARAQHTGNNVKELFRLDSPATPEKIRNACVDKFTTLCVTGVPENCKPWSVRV

COc1cc2ccc3c(CC[N+](C)(C)C)c(Br)c(OC)c(OC)c3c2cc1OC.[I-]
IC50 [1]: 3010 nM | inhibition [1]: Dose-dependent effect | Activity [2]: 3.45 µmol/min | inhibition at 100 µM [3]: 62%

COc1cc2c(ccc3c(CC[N+](C)(C)C)c(Br)c(O)c(OC)c32)cc1O.[I-]
IC50 [1]: 2110 nM | inhibition [1]: Dose-dependent effect | IC50 [4]: 740 nM | inhibition (Homo sapiens): Dose-dependent effect | Activity [2]: 3.6 µmol/min

COc1cc2c(ccc3c(CCN(C)C)c(Br)c(O)c(OC)c32)cc1O [2-BROMO-N-METHYLSECOBOLDINE]
IC50 [1]: 190 nM | inhibition [1]: Dose-dependent effect | IC50 [4]: 780 nM | inhibition (Homo sapiens): Dose-dependent effect | Activity [2]: 3.98 µmol/min

CNCCc1c(Br)c(O)c(OC)c2c1ccc1cc(O)c(OC)cc12 [2-BROMOSECOBOLDINE]
IC50 [1]: 160 nM | inhibition [1]: Dose-dependent effect | IC50 [4]: 640 nM | inhibition (Homo sapiens): Dose-dependent effect | Activity [2]: 2.82 µmol/min

COc1cc2c(cc1O)C[C@H]1c3c(c(Br)c(O)c(OC)c3-2)CC[N+]1(C)C.[I-] [3-BROMO-N-METHYLBOLDINE IODIDE]
IC50 [1]: 2000 nM | inhibition [1]: Dose-dependent effect | IC50 [4]: 1270 nM | inhibition (Homo sapiens): Dose-dependent effect | Activity [2]: 3.77 µmol/min

COc1cc2c(cc1O)C[C@H]1c3c(c(Br)c(O)c(OC)c3-2)CCN1C [3-BROMOBOLDINE]
IC50 [1]: 550 nM | inhibition [1]: Dose-dependent effect | IC50 [4]: 810 nM | inhibition (Homo sapiens): Dose-dependent effect | Activity [2]: 4.09 µmol/min

O=C1O[C@H]([C@@H](O)CO)C(O)=C1O [ASCORBIC ACID]
IC50 [4]: 168000 nM
